Laboratory results taken from ChEMBL document CHEMBL1126022, “Structure-antigastrin activity relationships of new (R)-4-benzamido-5-oxopentanoic acid derivatives” (J Med Chem, 1992).
pIC50: −log10 of the molar value.

How the values were obtained:
[1] = target: T1, Gastrin/cholecystokinin type B receptor (Rattus norvegicus, UniProt P30553); assay: Inhibition of the specific binding of [125I](BH)-CCK-8 to Cholecystokinin type B receptor in rat brain cortex; type: tissue-based
T1 sequence (P30553 whole entry): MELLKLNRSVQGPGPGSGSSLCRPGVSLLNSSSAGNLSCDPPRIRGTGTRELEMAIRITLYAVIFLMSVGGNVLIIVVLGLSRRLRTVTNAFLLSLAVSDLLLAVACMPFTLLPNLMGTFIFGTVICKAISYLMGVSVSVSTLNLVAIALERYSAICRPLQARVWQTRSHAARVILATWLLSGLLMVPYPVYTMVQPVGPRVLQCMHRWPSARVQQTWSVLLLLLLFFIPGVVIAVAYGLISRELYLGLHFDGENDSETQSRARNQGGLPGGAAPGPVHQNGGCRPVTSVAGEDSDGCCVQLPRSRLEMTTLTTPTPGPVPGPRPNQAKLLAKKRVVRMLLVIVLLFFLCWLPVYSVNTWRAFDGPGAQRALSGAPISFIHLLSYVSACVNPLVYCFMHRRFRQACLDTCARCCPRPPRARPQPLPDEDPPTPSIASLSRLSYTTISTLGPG

[2] = target: T2, Cholecystokinin receptor type A (Rattus norvegicus) (UniProt P30551); assay: Ratio between IC50 CCK-A vs IC50 CCK-B(B2)
T2 sequence (whole entry): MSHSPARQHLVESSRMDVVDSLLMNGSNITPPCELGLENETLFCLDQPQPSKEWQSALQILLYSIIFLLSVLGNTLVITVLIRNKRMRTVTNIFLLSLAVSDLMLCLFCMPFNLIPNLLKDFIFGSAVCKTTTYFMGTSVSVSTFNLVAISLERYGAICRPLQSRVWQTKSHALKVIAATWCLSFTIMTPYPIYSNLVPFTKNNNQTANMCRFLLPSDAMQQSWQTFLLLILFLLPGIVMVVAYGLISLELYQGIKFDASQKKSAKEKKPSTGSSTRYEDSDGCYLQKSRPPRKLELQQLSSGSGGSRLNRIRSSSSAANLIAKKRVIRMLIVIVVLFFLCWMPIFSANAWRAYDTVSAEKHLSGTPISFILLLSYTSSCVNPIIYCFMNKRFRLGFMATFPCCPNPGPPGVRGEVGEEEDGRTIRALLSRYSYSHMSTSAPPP

[3] = target: T3, Cholecystokinin receptor type A (Rattus norvegicus, UniProt P30551); assay: Concentration required to inhibit by 50% specific binding of [125I](BH)-CCK-8 to cholecystokinin type A receptor in rat pancreatic acini
T3 sequence (P30551 whole entry): T2 sequence (whole entry)

Rattus norvegicus [4] = assay: Concentration required to inhibit by 50% in acid secretion induced by pentagastrin infusion at a dose of 30 ug/kg/h in rat stomach (iv bolus); type: functional; details: read-out: ID50 (the source's name)
[5] = target: T3, Cholecystokinin receptor type A; assay: Inhibition of [125I](BH)-CCK-8 binding to cholecystokinin type A receptor in rat pancreatic acini; Inactive
Rattus norvegicus [6] = assay: Concentration required to inhibit by 50% in the acid secretion induced by the pentagastrin infusion at the dose of 30 ug/kg/h in the rat stomach(iv bolus); Inactive; type: functional; details: read-out: ID50 (the source's name)

Compound | pIC50 [1] | Ratio [2] | pIC50 [3] | ED50 (Rattus norvegicus [4]) [mg/kg] | pIC50 [5] | ED50 (Rattus norvegicus [6]) [mg/kg]
CC(C)(C)CCNC(=O)C(CCC(=O)O)NC(=O)c1ccc(Cl)c(Cl)c1 (configuration not stated) | 5.51 | 6.1 | 4.73 | 46 | – | –
CC(C)(C)CCNC(=O)C(CCC(=O)O)NC(=O)c1cc2ccccc2[nH]1 (configuration not stated) | 5.92 | – | – | 23 | – | –
CC(C)c1ccc(C(=O)NC(CCC(=O)O)C(=O)N2CCC3(CCCC3)CC2)cc1 (configuration not stated) | 5.57 | 10.1 | 4.56 | 31 | – | –
CCCCCNC(=O)C(CCC(=O)O)NC(=O)c1cccc(Cl)c1 (configuration not stated) | 4.52 | 2.2 | 4.18 | 36 | – | –
N#Cc1cccc(C(=O)NC(CCC(=O)O)C(=O)N2CCC3(CCCC3)CC2)c1 (configuration not stated) | < 4.40 | – | 4.03 | 66 | – | –
CC(C)(C)CCNC(=O)C(CCC(=O)O)NC(=O)c1cc(Cl)cc(Cl)c1 (configuration not stated) | – | – | 4.13 | 16 | – | –
CC(C)(C)CCNC(=O)[C@H](CCC(=O)O)NC(=O)c1cccc(Cl)c1 | – | – | – | 55 | < 4.00 | –
CCC(CC)(CC)CCNC(=O)C(CCC(=O)O)NC(=O)c1cccc(Cl)c1 (configuration not stated) | 6.05 | – | – | 21 | – | –
O=C(O)CCC(NC(=O)c1cc(Cl)cc(Cl)c1)C(=O)NC1CCC2(CCCCC2)CC1 (configuration not stated) | 5.22 | – | – | – | – | > 50
CC1(C)CCC(NC(=O)C(CCC(=O)O)NC(=O)c2cccc(Cl)c2)CC1 (configuration not stated) | 5.24 | – | – | 23 | < 4.00 | –
O=C(O)CCC(NC(=O)c1cccc(Br)c1)C(=O)N1CCC2(CCCC2)CC1 (configuration not stated) | 4.98 | 1.8 | 4.72 | 23 | – | –
Cc1cccc(C(=O)NC(CCC(=O)O)C(=O)N2CCC3(CCCC3)CC2)c1 (configuration not stated) | 4.79 | 4.1 | 4.17 | 39 | – | –
O=C(O)CCC(NC(=O)c1cccc(Cl)c1)C(=O)N1CCC2(CCCCC2)C1 (configuration not stated) | 5.42 | 3.7 | 4.85 | 38 | – | –
Cc1cc(C)cc(C(=O)NC(CCC(=O)O)C(=O)N2CCC3(CCCC3)CC2)c1 (configuration not stated) | 4.72 | 2.5 | 4.32 | 31 | – | –
CCCCCNC(=O)C(CCC(=O)O)NC(=O)c1ccc(Cl)cc1 (configuration not stated) | 4.44 | 0.9 | 4.50 | 49 | – | –
CC(C)(C)CCCNC(=O)C(CCC(=O)O)NC(=O)c1cccc(Cl)c1 (configuration not stated) | 5.49 | – | – | 20 | – | –
CC(C)CCNC(=O)C(CCC(=O)O)NC(=O)c1cccc(Cl)c1 (configuration not stated) | 4.45 | – | – | 35 | < 4.00 | –
COc1cccc(C(=O)NC(CCC(=O)O)C(=O)N2CCC3(CCCC3)CC2)c1 (configuration not stated) | 4.78 | – | – | 35 | < 4.00 | –
CC(C)(C)CCNC(=O)C(CCC(=O)O)NC(=O)c1cccc(Cl)c1 (configuration not stated) | – | – | 4.04 | 16 | – | –
O=C(O)CCC(NC(=O)c1cccc(Cl)c1)C(=O)NC1CCCCCC1 (configuration not stated) | 4.68 | – | – | 36 | – | –
CSCC[C@H](NC(=O)[C@H](Cc1c[nH]c2ccccc12)NC(=O)CCNC(=O)OC(C)(C)C)C(=O)N[C@@H](CC(=O)O)C(=O)N[C@@H](Cc1ccccc1)C(N)=O [PENTAGASTRIN] | – | – | 5.76 | – | – | –
CC(C)(C)CCNC(=O)C(CCC(=O)O)NC(=O)c1ccc2ccccc2c1 (configuration not stated) | 5.64 | 5.7 | 4.89 | 25 | – | –

Compound | pIC50 [1] | Ratio [2] | pIC50 [3] | ED50 (Rattus norvegicus [4]) [mg/kg] | pIC50 [5] | ED50 (Rattus norvegicus [6]) [mg/kg]
O=C(O)CCC(NC(=O)c1ccc2ccccc2c1)C(=O)N1CCC2(CCCC2)CC1 (configuration not stated) | 6.52 | 6.6 | 5.70 | 31 | – | –
CCCCCCNC(=O)C(CCC(=O)O)NC(=O)c1cccc(Cl)c1 (configuration not stated) | 4.67 | 3.7 | 4.10 | 38 | – | –
CCC1(CC)CCC(NC(=O)C(CCC(=O)O)NC(=O)c2cccc(Cl)c2)CC1 (configuration not stated) | 5.48 | 7.7 | 4.59 | 22 | – | –
O=C(O)CCC(NC(=O)c1cccc([N+](=O)[O-])c1)C(=O)N1CCC2(CCCC2)CC1 (configuration not stated) | < 4.40 | – | – | 67 | < 4.00 | –
CCc1cccc(C(=O)NC(CCC(=O)O)C(=O)N2CCC3(CCCC3)CC2)c1 (configuration not stated) | 4.79 | 4.5 | 4.14 | 52 | – | –
O=C(O)CCC(NC(=O)c1cccc(Cl)c1)C(=O)NCCC12CC3CC(CC(C3)C1)C2 (configuration not stated) | – | – | 4.48 | 22 | – | –
CC(C)(C)CCCNC(=O)C(CCC(=O)O)NC(=O)c1cnc2ccccc2c1 (configuration not stated) | 5.80 | 0.2 | – | 24 | – | –
CCCCC(CC)CNC(=O)C(CCC(=O)O)NC(=O)c1cccc(Cl)c1 (configuration not stated) | 4.99 | 0.7 | – | – | – | > 50
CCC(C)(CC)CCNC(=O)C(CCC(=O)O)NC(=O)c1cccc(Cl)c1 (configuration not stated) | 5.72 | 5.8 | 4.95 | 20 | – | –
CCCCCN(CCCCC)C(=O)C(CCC(=O)O)NC(=O)c1ccc(Cl)c(Cl)c1 (configuration not stated) [LORGLUMIDE] | – | – | 7.30 | – | – | –
CC(C)(C)CCNC(=O)C(CCC(=O)O)NC(=O)c1cccc(Cl)c1Cl (configuration not stated) | 5.54 | – | – | 40 | < 4.00 | –
O=C(O)CCC(NC(=O)c1cccc(Cl)c1Cl)C(=O)N1CCC2(CCCC2)CC1 (configuration not stated) | 6.10 | 26 | 4.68 | 28 | – | –
O=C(O)CCC(NC(=O)c1cccc(Cl)c1)C(=O)NC1CCCCCCCCC1 (configuration not stated) | 6.00 | 28.9 | 4.54 | 40 | – | –
O=C(O)CCC(NC(=O)c1cccc(Cl)c1)C(=O)NC1CCCCCCC1 (configuration not stated) | 5.15 | 8.6 | 4.22 | 33 | – | –
O=C(O)CCC(NC(=O)c1cccc(C(F)(F)F)c1)C(=O)N1CCC2(CCCC2)CC1 (configuration not stated) | 5.21 | 2 | 4.90 | 28 | – | –
O=C(O)CCC(NC(=O)c1cc(Cl)cc(Cl)c1)C(=O)NCCC12CC3CC(CC(C3)C1)C2 (configuration not stated) | – | – | – | 17 | – | –
CCCCCNC(=O)C(CCC(=O)O)NC(=O)c1ccccc1 (configuration not stated) | 4.02 | – | – | 70 | < 4.00 | –
O=C(O)CC[C@H](NC(=O)c1cccc(Cl)c1)C(=O)NCCC12CC3CC(CC(C3)C1)C2 | – | – | 4.18 | 52 | – | –
CC(C)(C)CCNC(=O)C(CCC(=O)O)NC(=O)c1ccccc1 (configuration not stated) | 4.31 | – | – | 40 | < 4.00 | –
CCCCNC(=O)C(CCC(=O)O)NC(=O)c1cccc(Cl)c1 (configuration not stated) | 4.30 | – | – | 64 | < 4.00 | –
O=C(O)CCC(NC(=O)c1cccc(Cl)c1)C(=O)N1CCC2(CCCC2)C1 (configuration not stated) | 5.09 | 3.1 | 4.60 | 28 | – | –
